Where a name gives a salt, the structure may show the parent alone.
How the values were obtained:
[1] = molecular target: T1, BACE1 (Homo sapiens, UniProt P56817); assay: Cellular Aβ-lowering assay a): HEK293 cells expressing human APP695, Aβ40 ELISA; type: cell-based; conditions: Aβ40 in supernatant by ELISA, 18-20 hrs incubation
T1 construct: endogenous in cells; host or cells: HEK293 stably transfected with human APP695 wt
Experimental: Cellular Aβ-Lowering Assay:
a) Human HEK293 cells which are stably transfected with a vector expressing a cDNA of the human APP wt gene (APP695) were used to assess the potency of the compounds in a cellular assay. The cells were seeded in 96-well microtiter plates in cell culture medium (Iscove, plus 10% (v/v) fetal bovine serum, glutamine, penicillin/streptomycin) to about 80% confluence and the compounds were added at a 10× concentration in 1/10 volume of medium without FCS containing 8% DMSO (final concentration of DMSO was kept at 0.8% v/v). After 18-20 hrs incubation at 37° C. and 5% CO2 in a humidified incubator the culture supernatant was harvested for the determination of Aβ40 concentrations. 96 well ELISA plates (e.g., Nunc MaxiSorb) were coated with monoclonal antibody which specifically recognize the C-terminal end of Aβ40 (Brockhaus et al., NeuroReport 9, 1481-1486; 1998). After blocking of non-specific binding sites with e.g. 1% BSA and washing, the culture supernatants were added in suitable dilutions together with a horseradish peroxidase-coupled Aβ detection antibody (e.g., antibody 4G8, Senetek, Maryland Heights, Mo.) and incubated for 5 to 7 hrs. Subsequently the wells of the microtiter plate were washed extensively with Tris-buffered saline containing 0.05% Tween 20 and the assay was developed with tetramethylbenzidine/H2O2 in citric acid buffer. After stopping the reaction with one volume 1 N H2SO4 the reaction was measured in an ELISA reader at 450 nm wavelength. The concentrations of Aβ in the culture supernatants were calculated from a standard curve obtained with known amounts of pure Aβ peptide.

[2] = molecular target: T2, endogenous cellular BACE2 (Rattus norvegicus, UniProt Q6IE75); assay: Assay for BACE inhibition by measuring cellular TMEM27 cleavage (INS-TMEM27 cells, ELISA); type: cell-based; conditions: INS-TMEM27 (Ins1e rat) cells, shed human TMEM27 by ELISA
T2 construct: endogenous in cells; host or cells: INS-TMEM27 (INS1e-derived rat cell line with inducible full-length hTMEM27)
T2 sequence (Q6IE75 63-514): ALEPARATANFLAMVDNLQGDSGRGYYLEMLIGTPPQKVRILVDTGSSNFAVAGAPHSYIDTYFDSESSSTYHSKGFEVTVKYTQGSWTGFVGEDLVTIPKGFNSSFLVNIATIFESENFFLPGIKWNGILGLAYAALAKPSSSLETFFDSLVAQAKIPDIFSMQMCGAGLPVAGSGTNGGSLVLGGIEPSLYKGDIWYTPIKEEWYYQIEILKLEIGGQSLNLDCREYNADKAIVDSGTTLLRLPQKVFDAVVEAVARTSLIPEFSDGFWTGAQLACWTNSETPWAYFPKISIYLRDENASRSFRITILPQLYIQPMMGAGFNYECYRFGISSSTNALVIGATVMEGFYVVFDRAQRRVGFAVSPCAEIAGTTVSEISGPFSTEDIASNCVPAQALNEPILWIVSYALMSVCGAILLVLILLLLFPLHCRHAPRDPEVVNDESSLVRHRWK
Excerpt: Assay for BACE Inhibition by Measuring Cellular TMEM27 Cleavage:
The assay uses the principle of inhibition of human TMEM27 cleavage by endogenous cellular BACE2 in the Ins1e rat cell line and shedding from the cell surface into the culture medium, followed by detection in an ELISA assay Inhibition of BACE2 prevents the cleavage and shedding in a dose-dependent manner
The stable cell line “INS-TMEM27” represents an INS1e-derived cell line with inducible expression (using the TetOn system) of full-length hTMEM27 in a doxycycline-dependent manner. The cells are cultured throughout the experiment in RPMI1640+Glutamax (Invitrogen) Penicillin/Streptomycin, 10% Fetal bovine serum, […], […], 100 micrograms/ml G418 and 100 microgram/ml hygromycin and are grown inadherent culture at 37° C. in a standard CO2 cell culture incubator.
INS-TMEM27 cells are seeded in 96-well plates. After 2 days in culture, BACE2 inhibitor is added in a range of concentrations as required by the assay and after a further two hours, doxycycline is added to a final concentration of 500 ng/ml. The cells are incubated for a further 46 hours and the supernatant harvested for detection of shed TMEM27.
An ELISA assay (using a pair of mouse anti-human-TMEM27 antibodies, raised against the extracellular domain of TMEM27) is used for detection of TMEM27 in the culture medium. An EC50 for BACE2 inhibition is calculated using the ELISA readout for each inhibitor concentration with standard curve-fitting software such as XLFit for the Excel spreadsheet program.

T1 sequence (P56817 46-501): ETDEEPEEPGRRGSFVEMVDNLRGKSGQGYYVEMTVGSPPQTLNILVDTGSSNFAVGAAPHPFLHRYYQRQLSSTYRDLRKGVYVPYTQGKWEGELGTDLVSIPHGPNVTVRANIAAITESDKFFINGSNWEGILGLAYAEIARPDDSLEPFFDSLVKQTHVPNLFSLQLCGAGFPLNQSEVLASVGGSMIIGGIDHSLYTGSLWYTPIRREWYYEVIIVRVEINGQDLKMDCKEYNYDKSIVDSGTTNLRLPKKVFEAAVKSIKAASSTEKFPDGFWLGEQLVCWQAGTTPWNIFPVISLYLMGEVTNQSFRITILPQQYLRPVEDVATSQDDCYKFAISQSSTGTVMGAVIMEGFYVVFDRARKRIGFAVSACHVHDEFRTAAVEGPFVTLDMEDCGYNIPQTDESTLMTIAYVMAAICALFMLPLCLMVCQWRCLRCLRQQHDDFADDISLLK

SMILES | IC50 [1] | IC50 [2]
CC1(C)OCC(N)=N[C@](C)(c2cc(-c3cncc(Cl)c3)ccc2F)C1(F)F [Example 4, (R)-5-[5-(5-Chloro-pyridin-3-yl)-2-fluoro-phenyl]-6,6-difluoro-5,7,7-trimethyl-2,5,6,7-tetrahydro-[1,4]oxazepin-3-ylamine] | 205 nM | 592 nM
CC1(C)OCC(N)=N[C@](C)(c2cc(-c3cnn(-c4ccc(F)cc4)c3)ccc2F)C1(F)F [Example 6, (R)-6,6-Difluoro-5-{2-fluoro-5-[1-(4-fluoro-phenyl)-1H-pyrazol-4-yl]-phenyl}-5,7,7-trimethyl-2,5,6,7-tetrahydro-[1,4]oxazepin-3-ylamine] | 520 nM | 
CC1(C)OCC(N)=N[C@](C)(c2cc(-c3cc(Cl)cc(Cl)c3)ccc2F)C1(F)F [Example 10, (R)-5-(3′,5′-Dichloro-4-fluoro-biphenyl-3-yl)-6,6-difluoro-5,7,7-trimethyl-2,5,6,7-tetrahydro-[1,4]oxazepin-3-ylamine] | 1590 nM | 1330 nM
CC1(C)OCC(N)=N[C@](C)(c2cc(-c3ccc(C#N)cc3F)ccc2F)C1(F)F [Example 13, 3′-((R)-3-amino-6,6-difluoro-5,7,7-trimethyl-2,5,6,7-tetrahydro-[1,4]oxazepin-5-yl)-2,4′-difluoro-biphenyl-4-carbonitrile] | 92 nM | 
CC1(C)OCC(N)=N[C@](C)(c2cc(-c3ccc(C#N)cc3)c(F)cc2F)C1(F)F [Example 27, 5′-((R)-3-amino-6,6-difluoro-5,7,7-trimethyl-2,5,6,7-tetrahydro-[1,4]oxazepin-5-yl)-2′,4′-difluoro-biphenyl-4-carbonitrile] | 430 nM | 
CC1(C)OCC(N)=N[C@](C)(c2cc(-c3cccc(C#N)c3)ccc2F)C1(F)F [Example 14, 3′-((R)-3-Amino-6,6-difluoro-5,7,7-trimethyl-2,5,6,7-tetrahydro-[1,4]oxazepin-5-yl)-4′-fluoro-biphenyl-3-carbonitrile] | 186 nM | 279 nM
CC1(C)OCC(N)=N[C@](C)(c2cc(-c3nc4ccc(Cl)cc4o3)ccc2F)C1(F)F [Example 19, (R)-5-[5-(6-Chloro-benzooxazol-2-yl)-2-fluoro-phenyl]-6,6-difluoro-5,7,7-trimethyl-2,5,6,7-tetrahydro-[1,4]oxazepin-3-ylamine hydrochloride] | 250 nM | 
C[C@]1(c2cc(-c3cncnc3)ccc2F)N=C(N)COCC1(F)F [Example 1, (R)-6,6-Difluoro-5-(2-fluoro-5-pyrimidin-5-yl-phenyl)-5-methyl-2,5,6,7-tetrahydro-[1,4]oxazepin-3-ylamine formate] | 253 nM | 
CC1(C)OCC(N)=N[C@](C)(c2cc(-c3cncnc3)c(F)cc2F)C1(F)F [Example 25, (R)-6,6-Difluoro-5-(2,4-difluoro-5-pyrimidin-5-yl-phenyl)-5,7,7-trimethyl-2,5,6,7-tetrahydro-[1,4]oxazepin-3-ylamine] | 7 nM | 
Cc1nc(C#Cc2ccc(F)c([C@@]3(C)N=C(N)COC(C)(C)C3(F)F)c2)cs1 [Example 17, (R)-6,6-Difluoro-5-[2-fluoro-5-(2-methyl-thiazol-4-ylethynyl)-phenyl]-5,7,7-trimethyl-2,5,6,7-tetrahydro-[1,4]oxazepin-3-ylamine] | 800 nM | 
CC1(C)OCC(N)=N[C@](C)(c2cc(-c3cccc(C#N)c3)c(F)cc2F)C1(F)F [Example 28, 5′-((R)-3-Amino-6,6-difluoro-5,7,7-trimethyl-2,5,6,7-tetrahydro-[1,4]oxazepin-5-yl)-2′,4′-difluoro-biphenyl-3-carbonitrile] | 790 nM | 
Cn1nccc1-c1ccc(F)c([C@@]2(C)N=C(N)COC(C)(C)C2(F)F)c1 [Example 7, (R)-6,6-Difluoro-5-[2-fluoro-5-(2-methyl-2H-pyrazol-3-yl)-phenyl]-5,7,7-trimethyl-2,5,6,7-tetrahydro-[1,4]oxazepin-3-ylamine] | 540 nM | 
CC1(C)OCC(N)=N[C@](C)(c2cc(-c3cncc(Cl)c3)c(F)cc2F)C1(F)F [Example 26, (R)-5-[5-(5-Chloro-pyridin-3-yl)-2,4-difluoro-phenyl]-6,6-difluoro-5,7,7-trimethyl-2,5,6,7-tetrahydro-[1,4]oxazepin-3-ylamine] | 81 nM | 
CC1(C)OCC(N)=N[C@](C)(c2cc(C3CCOCC3)ccc2F)C1(F)F [Example 8, (R)-6,6-Difluoro-5-[2-fluoro-5-(tetrahydro-pyran-4-yl)-phenyl]-5,7,7-trimethyl-2,5,6,7-tetrahydro-[1,4]oxazepin-3-ylamine] | 650 nM | 
CC1(C)OCC(N)=N[C@](C)(c2cc(-c3cncnc3)ccc2F)C1(F)F [Example 2, (R)-6,6-Difluoro-5-(2-fluoro-5-pyrimidin-5-yl-phenyl)-5,7,7-trimethyl-2,5,6,7-tetrahydro-[1,4]oxazepin-3-ylamine] | 56 nM | 
CC1(C)OCC(N)=N[C@](C)(c2cc(-c3cc(F)cc(F)c3)ccc2F)C1(F)F [Example 3, (R)-6,6-Difluoro-5,7,7-trimethyl-5-(4,3′,5′-trifluoro-biphenyl-3-yl)-2,5,6,7-tetrahydro-[1,4]oxazepin-3-ylamine] | 180 nM | 
CC1(C)OCC(N)=N[C@](C)(c2cc(C3=CCOCC3)ccc2F)C1(F)F [Example 5, (R)-5-[5-(3,6-Dihydro-2H-pyran-4-yl)-2-fluoro-phenyl]-6,6-difluoro-5,7,7-trimethyl-2,5,6,7-tetrahydro-[1,4]oxazepin-3-ylamine] | 430 nM | 
CC1(C)OCC(N)=N[C@](C)(c2cc(C#Cc3cccc(Cl)c3)ccc2F)C1(F)F [Example 9, (R)-5-[5-(3-Chloro-phenylethynyl)-2-fluoro-phenyl]-6,6-difluoro-5,7,7-trimethyl-2,5,6,7-tetrahydro-[1,4]oxazepin-3-ylamine] | 1340 nM | 

— patent publication US8877744B2, “1,4-Oxazepines as BACE1 and/or BACE2 inhibitors” (Hoffmann-La Roche Inc., priority 2011, dated 2014)
